The nature of series [1]: Bleeding time (tail transection). To be noted: dose not stated; vs control. The class given is in vivo, mice. How it is done:
Bleeding time in mice was tested during the period of receiving test compounds. Mice were anesthetized with isoflurane inhalation. By using a scalpel, 0.5 cm of the distal end of the tail was transected, and the remaining length of tail was immersed immediately into a 37° C. solution of saline. Bleeding time was measured from the time of tail transection until visible bleeding could no longer be detected. The experiment was repeated 3 times with different groups and concentrations.

The subject of series [2] is pancreatic (Panc-1) tumor. Description: CAM tumor implant model, Panc-1. In kind it is in vivo. The settings on record: 10 ug/CAM.
The subject of series [3] is MCF7 DOX resistant cancer cells. In words: Orthotopic implant of MCF7 DOX resistant cells in nude mice. The class given is in vivo. To be noted: 10 mg/Kg, SC daily for 15 days, vs control. How it is done:
Immune-deficient female NCr nude homozygous mice aged 5-6 weeks weighing 18-20 g were purchased from Harlan Laboratories (Indianapolis, Ind.). All animal studies were conducted in accordance with the institutional guidelines for humane animal treatment. Mice were maintained under specific pathogen-free conditions and housed under controlled conditions of temperature (20-24° C.), humidity (60-70%), and 12 h light/dark cycle with ad libitum access to water and food. Mice were allowed to acclimatize for 5 days prior to the start of study.
Orthotopic implant of 0.5 million of MCF7 DOX resistant cancer cells in nude mice result in progressive rapid tumor growth approaching 150 mm3 after 5 days of implant.

Series [4] deals with Mpanc96-luc cancer cells. Description: Liver metastasis and recurrence after excision of pancreatic cancer. In kind it is in vivo. To be noted: experiment and dose not stated at the place. An excerpt: Different groups of mice received either saline (control), LMWH, SNACH or S-SNACH, followed by injection of luciferase transfected pancreatic cancer cells into the mouse spleen. The treatment continued daily for two weeks. IVIS imaging was done once a week to measure the metastatic load to various organs. The tumor burden measurements were based on the bioluminescence signal intensity of the pancreatic cancer cells. The second experiment was intended to study the effect of the compounds (LMWH, SNACH, and S-SNACH) on metastasis after tumor excision surgery. Pancreatic Mpanc96 cells were injected into the tail of the pancreas and one week later animals were randomized into different groups. One group received saline and another group received LMWH, SNACH, and S-SNACH at 30 minutes before resection of the pancreatic tumor, followed by daily treatment for 3 weeks. Tumor metastasis was evaluated by IVIS imagining. A bleeding time experiment was done to evaluate the relative effect on bleeding time. […] Tumor luminescent signal intensity, weight, and histopathology were assessed at the termination of the study.
Mice were randomly distributed into control and treatment groups, averaging 10 mice in each group. […] The spread of cancer cells was monitored using IVIS imaging once per week, and at the end of the 3 week treatment period the mice were euthanized.

The source of these data is patent publication US9572831B2, “Composition and method for sulfated non-anticoagulant low molecular weight heparins in cancer and tumor metastasis” (priority 2013, dated 2017).

Turning to tinzaparin, in series [1], the bleeding time entry is given as “extended the bleeding significantly”. Further, in series [2], the “tumor growth or tumor angiogenesis” value was “inhibited”. For the same substance, the tumor growth progression entry in series [3] is reported as “halting tumor growth progression”. Further, in series [4], the “tumor recurrence after surgical excision” value is given as “not”.
